This is an account of results in ChEMBL document CHEMBL1158663, “New acetylenes isolated from the bark of Heisteria acuminata” (J Nat Prod, 1998).

The species entered for one experiment is Sus scrofa. Nature of the experiment: Inhibition of 5-LO from pig leukocytes at 5 uM.
For experiment [1], the species on record is Ovis aries. Put plainly: Inhibition of COX in sheep seminal vesicle microsome assessed as reduction in PGE2 concentration at 6.5 uM relative to control. The class given is microsomes.
The species entered for experiment [2] is Ovis aries. Nature of the experiment: Inhibition of COX in sheep seminal vesicle microsome assessed as reduction in PGE2 concentration at 13 uM relative to control. The class given is microsomes.

Structures are written as SMILES.

As a reminder, the inhibition is the share of the control response that was lost under treatment. Turning to `CCCC/C=C\C#CC#CCCCCCC(=O)O`, the results for the inhibition in the experiment filed under Sus scrofa, in the experiment filed under Ovis aries [1] and in the experiment listed under Ovis aries [2] were 45%, 36% and 51%, respectively.

As to `CCCCC/C=C\CC#CC#CCCCCCC(=O)O`, the inhibition stood at 55% in the experiment filed under Sus scrofa, 40% in the experiment listed under Ovis aries [1] and 56% in the experiment listed under Ovis aries [2].

For the molecule `CCCCCC#CC#CC#CCCCCCCC(=O)O`, the inhibition in the experiment filed under Sus scrofa worked out at 21%; in the experiment listed under Ovis aries [1], 33%; in the experiment listed under Ovis aries [2] it was 45%.

For the molecule `CCCC/C=C/C#CC#CCCCCC(=O)O`, the results for the inhibition in the experiment listed under Sus scrofa, in the experiment filed under Ovis aries [1] and in the experiment filed under Ovis aries [2] were 14%, 44% and 56%, respectively.

Turning to `CCCCC#CC#CC#CCCCCC(=O)O`, the inhibition in the experiment filed under Sus scrofa is 18%; in the experiment listed under Ovis aries [1], 36%; in the experiment filed under Ovis aries [2] it was 55%.
